Laboratory results taken from patent US20230024384A1, “C[…] COMPOUND FOR TREATING FRAGILE X SYNDROME OR RELATED DEVELOPMENTAL DISORDERS” (NEUROVENTI, priority 2020, published 2023).

Key:
Format in all cases: in vivo, mouse
[1] = test system: animal model treated with MK-801 in wild-type mice; assay: pre-wave suppression test in MK-801-treated wild-type mice; conditions: lisuride intraperitoneally after MK-801, FIG. 6
Protocol: (§1) Pre-pulse suppression (%)=100−[(startle response to pre-stimulus+stimulus)/(start-up response to stimulus)]*100 [Equation 1]
(§2) Startle response was confirmed in an animal model treated with apomorphine or MK-801 in wild-type mice. […] Thereafter, sensorimotor gating was evaluated through a pre-wave suppression test (converted using Equation 1 above).

[2] = test system: Fmr1-deficient animal model (fragile X syndrome); assay: home-cage test in Fmr1-deficient animal model; conditions: Fmr1 KO mice, lisuride once daily for 5 days, sniffing measured for 15 minutes, FIG. 2
Protocol: (§3) Purchased a 5-week-old Fmr1 knockout mouse (Jackson Laboratory, USA) weighing about 22 g to 24 g, and acclimatized to an environment with a temperature of 23±2° C. and humidity of 55±10% and a light-dark cycle of 12 hours while allowing them to freely consume water and feed (Experimental Animal Center, Konkuk University). As experimental animals, wild-type (WT) with normal FMRP expression and male KO mice lacking FMRP (fragile X mental retardation protein) expression (fragile X syndrome; FXS) were used. Dosing and experiments were performed according to the age of the week. Dosing was performed at the same time. Behavioral experiments were conducted 30 minutes after administration. […] Meanwhile, 0.25 (v/v) % DMSO was intraperitoneally administered to the control group.
A home-cage test evaluates sociability in the breeding cage removing the possible confounders of stress due to abrupt changes in the environment. After raising the group of animals to be tested together, a wire cage was placed inside the home cage and allowed the animals to acclimatize for 30 minutes. A stimulus mouse was placed in a wire cage and the duration of sniffing by the subject mice to the wire cage was measured for 15 minutes.

[3] = test system: animal model treated with apomorphine in wild-type mice; assay: pre-wave suppression test in apomorphine-treated wild-type mice; conditions: lisuride intraperitoneally after apomorphine, FIG. 5
Protocol: as §1, §2

[4] = test system: Fmr1-deficient animal model (fragile X syndrome); assay: pre-pulse (pre-wave) suppression test in Fmr1-deficient animal model; conditions: Fmr1 KO mice, lisuride intraperitoneally, FIG. 3
Protocol: as §3
The startle response was confirmed using an Fmr1-deficient animal model. […] Thereafter, sensorimotor gating was evaluated through a pre-wave suppression test (converted using Equation 1 below).
as §1

[5] = test system: Fmr1-deficient animal model (fragile X syndrome); assay: three-chamber test in Fmr1-deficient animal model; conditions: Fmr1 KO mice, lisuride intraperitoneally 50 ug/kg, test 30 minutes after administration, FIG. 1
Protocol: as §3
If the animal model spent more time with a novel mouse rather than a familiar mouse, it is judged to be social. The test animal was exposed to the stimulus mouse for 10 minutes, and to a new stimulus mouse (novel) for another 10 minutes. In this case, the old mouse is called familiar and the new mouse is called a novel mouse. The time the test mouse explored each stimulus mouse was measured and expressed as %. As a result of the experiment, it was confirmed that the wild type spent more time with the novel mouse than the familiar mouse, indicating normal sociability. […]

For `CCN(CC)C(=O)N[C@H]1C=C2c3cccc4[nH]cc(c34)C[C@H]2N(C)C1` [lisuride, 1,1-Diethyl-3-(7-methyl-4,6,6a,7,8,9-hexahydro-indolo [4,3-fg]quinolin-9-yl)-urea], which “pre-pulse suppression (sensorimotor gating)” value (from here on “pre-pulse suppression”) [1] is on record?
The value was “pre-pulse suppression was restored”.

What about the “sniffing time to wire cage with stimulus mouse (sociability)” value [2] of the same compound?
Its value is “sniffing time increased again”.

What about the “pre-pulse suppression” value [3] of the same compound?
The value was “pre-pulse suppression was restored”.

And the “pre-pulse suppression” value [4]?
The value was “pre-pulse suppression was restored”.

What about the “sociability: time spent with novel mouse versus familiar mouse” value [5] of the same compound?
Its value is “more time was spent with the novel mouse than with the familiar mouse”.
